Patent EP0672419A1, “BLOOD PRESSURE REGULATOR” (Asahi Kasei Kogyo Kabushiki Kaisha, priority 1991, dated 1995)

Tested on: adult mongrel dogs
Assay: Phenylephrine-induced hypertension in four anesthetized dogs (Example 8)
Assay type: in vivo, dog
Conditions: after administ. of phenylephrine 10 min.; 10 µg/kg/min, before CGRP
Procedure: Example 6 was repeated by substantially almost same manner using four adult mongrel dogs, mean body weight 12.3±3.0 kg, applying same anesthetic condition. After setting up the experiment at more than 60 minutes passing and confirming to stabilize the depth of anesthesia and blood flow, phenylephrine (hypertensor) 10 µg/kg/min was administered.
Further after 10 minutes passed, the active ingredient, desalanyl-deamino-c-CGRP 10 µg/kg/hr was administered and at 10 min. and 20 min. after administration of the active ingredient, heart rate (HR) and mean a artery pressure (MAP) were measured.

CNC[C@H](O)c1cccc(O)c1 [phenylephrine]
HR: Heart rate: 138.0±9.3 beat/min | MAP: Mean artery pressure: 159.0±6.2 mmHg
